In data set [1] the test system is Rankl. Nature of the data set: Rankl transcript levels by RT-PCR in mouse mammary organoids stimulated ex vivo. The class given is cell-based. To be noted: for Rankl transcript levels over vehicle-treated control: BalbC females, 6 h of stimulation. On the procedure:
(§1) Next, we stimulated mouse mammary organoids derived from several BalbC females with R5020 or different progestins (Fig 1A). […] No significant change in Rankl and Wnt4 transcript levels was detected during the first 2 h (Appendix Fig S1D). By 6 h of R5020 stimulation, Rankl and Wnt4 transcript levels increased 22.4 and 5.8‐fold over the vehicle‐treated control, respectively.
(§2) Animal experiments were performed in accordance with protocol approved by the Service de la Consommation et des Affaires vétérinaires of Canton de Vaud (VD 1865.3, VD 1865.4). NOD. Cg‐Prkdc^scid Il2rg^tm1Wjl/SzJ mice (Charles River), BalbC, and C57Bl6 breeders were purchased from Jackson Laboratories. Mammary glands were isolated from 18‐ to 35‐week‐old mice, lymph nodes removed, minced with surgical blades, and digested in DMEM/F12, 1% penicillin/streptomycin B with collagenase A 0.25 mg/ml (Roche). […] Fat was removed, and pellet containing organoids washed with phosphate‐buffered saline (PBS), resuspended 5 min in 3 ml red cell blood lysis buffer and washed twice with PBS.
(§3) Human breast microstructures and mouse organoids were homogenized in Trizol (Invitrogen). Aqueous phase containing RNA was chloroform extracted and processed with miRNeasy extraction kit (Qiagen). cDNA was synthesized using random p(dN)6 primers (Roche) and MMLV reverse transcriptase (Invitrogen). SYBR Green PCR Core Reagent System (Qiagen) was used for semi‐quantitative real time (RT‐PCR) using the following primers.

For data set [2], the system named is Wnt4. Nature of the data set: Wnt4 transcript levels by RT-PCR in mouse mammary organoids stimulated ex vivo. To be noted: for Wnt4 transcript levels over vehicle-treated control: BalbC females, 6 h of stimulation. Format: cell-based. On the procedure: as §1, §2, §3
Data set [3] concerns endogenous hormone levels in mice. Nature of the data set: Endogenous steroid hormone plasma levels in treated host mice by LC-MS. To be noted: xenografted NSG females with pellets. The class given is in vivo, mouse. The text has this:
Next, we assessed whether progesterone and progestins differentially affected endogenous hormone levels in mice. Plasma 17‐β‐estradiol levels were not affected by any of the treatments (Fig 4H). […] Plasma testosterone levels were not altered by any treatment with the exception of DSP, which decreased them (Fig 4H). Thus, prolonged exposures to progestins differentially affect endogenous progesterone plasma levels and DSP decreases testosterone plasma levels in host mice.

For data set [4], the system named is HBECs. In words: MKI67/Ki67 expression in xenografted HBECs. Format: in vivo, human. To be noted: 21 days pellets; for cell proliferation (KI67 and hECAD double+ cells), overall analysis: HBECs from 11 different patients; for cell proliferation (KI67 and hECAD double+ cells): one mammoplasty (M310). The source says: (§4) Next, we sought for a readout of in vivo cell proliferation different from radiance. […] Given that MKI67 expression could replace the luciferase measurements as a readout, we used a modified experimental setup for a second round of experiments. We derived HBECs from viably frozen mammoplasty samples (Appendix Table S3) and engrafted them to different mammary glands of NSG females without viral infection. Four months later, the 24 recipient females, each engrafted with 5 different mammoplasties received pellets containing either vehicle, progesterone, or 1 of 6 progestins for 21 days. At sacrifice, xenografted glands were histologically sectioned and cell proliferation was quantified using co‐IF with anti‐MKI67 and anti‐hECAD antibodies. For one of the mammoplasties, we were able to obtain measurements for all experimental conditions (Fig 5I). […] For the remaining mammoplasties, between 3 and 8 different experimental conditions were successfully quantified (Appendix Table S4). […] CPA (P < 0.0001) decreased proliferation, whereas CMA and DSP had no effect (Fig 5K). As AR signaling increases AR protein levels, we performed co‐IF for AR and hECAD as another means to assess AR signaling activity.
(§5) Tissues were fixed for 2 h at room temperature in 4% paraformaldehyde and paraffin‐embedded. Dewaxed and rehydrated paraffin sections were pretreated in 10 mM Na citrate (pH 6.0) at 95° for 20 min. Blocking was performed with 1% BSA for 60 min. Primary antibodies used were as follows: Ki67 (rabbit α‐Ki67, clone Sp6, Spring Amsbio, dilution 1:200), ER (rabbit α‐ER, clone Sp1, Zytomed RTU), PR (rabbit α‐PR, clone 1E2, Ventana RTU), AR (rabbit α‐AR, clone SP107, Thermo Fisher, diluted 1:200), CK7 (rabbit α‐CK7, clone Sp52, Abcam, diluted 1:500), CK19 (mouse KS19.2 (Z105.6), American Research Products Inc. (diluted 1:50), and mouse α‐ECAD (clone G‐10, sc‐8426, diluted 1:100). For IHC, chromogenic revelation was performed with ChromoMap DAB kit (Roche Diagnostics, Switzerland) and sections were counterstained with Mayer’s hematoxylin. For fluorescence microscopy, nuclei were counterstained with DAPI (Sigma). IHC for ER, PR, and AR was performed on Discovery Ventana ULTRA (44). IHC images were acquired on Leica DM 2000 with Leica DFC450 C camera. IF images were acquired on Zeiss LSM700 confocal microscope. Slides were scanned with Olympus VS120‐L100 slide scanner with 20×/0.75 objective and Pike F505 C Color camera. Images were loaded into QuPath using the BioFormats extension (Bankhead et al, 2017).
In general terms: Xenograft models place foreign cells or tissue in a host animal.

The subject of data set [5] is AR. In words: Percentage of AR+ cells in xenografted HBECs by co-IF for AR and hECAD. Format: in vivo, human. To be noted: 21 days pellets, HBECs from 11 different patients.
Source text: as §4, §5

Data set [6] concerns AR. Also noted: method as in earlier work. To be noted: various assays, ref Fuhrmann et al, 1995, Muhn et al, Bouchard, 2005, Mishell, 2008, Schneider et al, 2009, Africander et al, 2011, Louw‐du Toit et al, 2017; cited from earlier work.
Data set [7] concerns HBECs. Nature of the data set: In vivo growth of intraductal HBEC xenografts measured by radiance. To be noted: 60 days of treatment, subcutaneous pellets.
Source text: To compare the effects of progesterone and different progestins on HBECs in vivo, we infected single cell suspensions obtained from fresh reduction mammoplasty specimens with GFP‐luciferase2‐expressing lentiviruses. The infected cell mixture was grafted intraductally to up to 5 glands of as many recipients as possible. The engraftment and growth of the xenografted cells were monitored weekly by in vivo imaging. When radiance reached > 10E07 on average per mammary gland, 60‐day‐release pellets were implanted subcutaneously, usually within 3–10 weeks after cell injection. At sacrifice, blood was collected and plasma levels of the administered compounds as well as endogenous steroid hormones were determined by liquid chromatography‐mass spectrometry (LC‐MS) (Laszlo et al, 2019).
Next, the in vivo growth of HBEC xenografts stimulated with progesterone or different progestins was analyzed. […] In addition, the fold change radiance of treated versus untreated samples at endpoint was calculated (Fig 5A–C).
Mice were anesthetized by intraperitoneal injection with 10 mg/kg xylazine and 90 mg/kg ketamine (Graeub) and injected intraductally with 10 μl cell suspension per gland. Bioluminescence imaging was performed as described (Sflomos et al, 2016). After 3–10 weeks, when bioluminescence from individual glands reached 10^7 total flux (p/s/cm2/sr), animals were assigned to different treatment groups and hormone pellets implanted subcutaneously. Enzalutamide (Selleckchem, Catalog No. S1250) dissolved in 15% DMSO in PEG300 was injected intraperitoneally 3 times/week at 30 mg/kg.
Pellets were prepared by mixing the required amount of part A, MP3745/E81949 and part B, MP3744/E81950 of low consistency silicon elastomer (MED‐4011) and hormone powder to homogeneity. Mix was transferred to a syringe and incubated at 37°C overnight. The silicon‐hormone mass was removed from the syringe and cut to pieces, as described (Duss et al, 2007). The original protocol was adapted for different doses as described below.
Data set [8] concerns women. To be noted: women taking androgenic progestins; ref Rossouw et al, 2002; cited from earlier work.
Setting [9] is: BalbC-derived organoids, 24 h of stimulation.

On to `CC(=O)O[C@]1(C(C)=O)CC[C@H]2[C@@H]3C=C(Cl)C4=CC(=O)CC[C@]4(C)[C@H]3CC[C@@]21C` [CMA, chlormadinone acetate], for which the “Rankl transcript levels over vehicle-treated control” value in data set [1] is given as “failed to affect Rankl transcript levels at all”. Also, the Rankl transcript induction result in data set [1] (setting [9]) was “no effect”. Moreover, the Rankl transcript induction entry in data set [1] (C57Bl/6 mice, 6 h, 20 nM) is listed as “failed to increase Rankl transcript levels”. Moreover, the “Wnt4 transcript levels over vehicle-treated control” value in data set [2] is on record as “did not alter Wnt4 transcript levels”. In addition, the Wnt4 transcript induction entry in data set [2] (setting [9]) is on record as “no effect”. In addition, the Wnt4 transcript induction result in data set [2] (C57Bl/6 mice, 6 h, 20 nM) is “did not alter Wnt4 transcript levels”. For the same compound, in data set [3], the “endogenous progesterone plasma levels (estrous cycle-related variation)” value (“endogenous progesterone plasma levels” below) is “tendency toward higher average level of progesterone”. Besides, in data set [4], the “cell proliferation (KI67 and hECAD double+ cells), overall analysis” value (“cell proliferation … overall analysis” for short) is reported as “no effect”; the “cell proliferation (KI67 and hECAD double+ cells)” value is reported as “no effect”. The “percentage of AR+ cells (AR index)” value in data set [5] is given as “no effect”. Besides, the “androgenic / anti-androgenic activity” value in data set [6] is given as “anti‐androgenic activity”. In data set [7], the “growth (course of radiance) of engrafted HBECs versus control” value (from here on “growth … of engrafted HBECs versus control”) was “Neither CMA nor CPA had any effect on the growth” and the “relative radiance at endpoint over control (FC)” value (“relative radiance at endpoint” for short) is 0.7 fold.
Turning to `CC(=O)O[C@]1(C(C)=O)CC[C@H]2[C@@H]3C=C(Cl)C4=CC(=O)[C@@H]5C[C@@H]5[C@]4(C)[C@H]3CC[C@@]21C` [CPA, cyprotherone acetate], the “Rankl transcript levels over vehicle-treated control” value in data set [1] is recorded as “failed to affect Rankl transcript levels at all”. Besides, the Rankl transcript induction result in data set [1] (setting [9]) is “no effect”; in data set [1] (C57Bl/6 mice, 6 h, 20 nM), “failed to increase Rankl transcript levels”. Moreover, the “Wnt4 transcript levels over vehicle-treated control” value in data set [2] is given as “did not alter Wnt4 transcript levels”. The Wnt4 transcript induction result in data set [2] (setting [9]) is “no effect”; in data set [2] (C57Bl/6 mice, 6 h, 20 nM) it was 2 fold. The “endogenous progesterone plasma levels” value in data set [3] is listed as “did not affect”. In addition, in data set [4], the “cell proliferation … overall analysis” value is given as “decreased”. Also, the “cell proliferation (KI67 and hECAD double+ cells)” value in data set [4] is given as “decreased”. Further, the “percentage of AR+ cells (AR index)” value in data set [5] is reported as “decreased”. Besides, in data set [6], the “androgenic / anti-androgenic activity” value is reported as “anti‐androgenic activity”. The “growth … of engrafted HBECs versus control” value in data set [7] is “Neither CMA nor CPA had any effect on the growth”. The “relative radiance at endpoint” value in data set [7] was found to be 0.7 fold.
For `C[C@]12CCC(=O)C=C1[C@@H]1C[C@@H]1[C@H]1[C@@H]3[C@@H]4C[C@@H]4[C@@]4(CCC(=O)O4)[C@@]3(C)CC[C@@H]12` [DSP, drospirenone], in data set [1], the “Rankl transcript levels over vehicle-treated control” value is “failed to affect Rankl transcript levels at all”. In addition, the Rankl transcript induction entry in data set [1] (setting [9]) is “no effect”. In addition, the Rankl transcript induction entry in data set [1] (C57Bl/6 mice, 6 h, 20 nM) is on record as “failed to increase Rankl transcript levels”. Also, the “Wnt4 transcript levels over vehicle-treated control” value in data set [2] is reported as “did not alter Wnt4 transcript levels”. For the same compound, the Wnt4 transcript induction result in data set [2] (setting [9]) was “no effect”. Also, in data set [2] (C57Bl/6 mice, 6 h, 20 nM), the Wnt4 transcript induction entry was “did not alter Wnt4 transcript levels”. In data set [3], the “endogenous progesterone plasma levels” value is “suppressed” and the plasma testosterone levels entry is listed as “decreased”. In data set [4], the “cell proliferation … overall analysis” value is recorded as “no effect”; the “cell proliferation (KI67 and hECAD double+ cells)” value is given as “no effect”. Further, in data set [5], the “percentage of AR+ cells (AR index)” value is given as “decreased”. Moreover, the “androgenic / anti-androgenic activity” value in data set [6] was “anti‐androgenic activity”. Moreover, in data set [7], the “growth … of engrafted HBECs versus control” value is reported as “failed to affect” and the “relative radiance at endpoint” value was found to be 1.4 fold.
As to `CC(=O)O[C@]1(C(C)=O)CC[C@H]2[C@@H]3C[C@H](C)C4=CC(=O)CC[C@]4(C)[C@H]3CC[C@@]21C` [MPA], the breast cancer risk result in data set [8] was “elevated breast cancer risk”.

Values taken from paper PMC8261488, “Contraceptive progestins with androgenic properties stimulate breast epithelial cell proliferation” (EMBO Molecular Medicine, 2021).
